We go through 16 compounds from PubChem BioAssay (NCI).

Experiment in all cases: NCI tumour cell line growth inhibition, 48 h
In experiment [1] the test system is HT29 colon.
The subject of experiment [2] is NCI-H460 lung.
In experiment [3] the test system is MOLT-4 leukemia.
The test system of experiment [4] is NCI/ADR-RES ovarian.
For experiment [5], the system named is MDA-N.
Experiment [6] concerns PC-3 prostate.
Experiment [7] deals with SNB-75 CNS.
Experiment [8] concerns HCT-15 colon.
Experiment [9] has as its system HS 578T breast.
Experiment [10] deals with HOP-92 NSCLC.
In experiment [11] the test system is SK-MEL-2 melanoma.
Experiment [12] deals with MDA-MB-231 breast.
In experiment [13] the test system is LOX IMVI melanoma.
The subject of experiment [14] is COLO 205 colon.
For experiment [15], the system named is SW-620 colon.
The subject of experiment [16] is SK-OV-3 ovarian.
Experiment [17] deals with HL-60(TB) leukemia.
Experiment [18] deals with UO-31 renal.
Experiment [19] deals with RPMI-8226 leukemia.
Experiment [20] relates to NCI-H522 lung.

Molecules are shown by their SMILES.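 The compound was tested at five concentrations on cells cultured in 96-well plates, with a 48-hour exposure period. The concentration for full growth arrest is given as TGI.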 Some results are limits rather than exact numbers.

On to `C/C(=N\Nc1nc2ccccc2[nH]1)c1ccncn1`, for which the TGI in [1] is over 100 µM; in experiment [2], over 100 µM; in experiment [3], over 100 µM; in experiment [4] it was 4.54 µM; in experiment [5] it was over 100 µM; in experiment [6], over 100 µM. For the same compound, the TGI in experiment [7] is over 74.5 µM; in experiment [8], over 100 µM; in experiment [9], over 100 µM; in [10] it was 0.293 µM; in experiment [11], over 66.1 µM; in experiment [12], over 100 µM. The TGI in [13] was over 42.5 µM; in experiment [14], over 47.4 µM; in experiment [15] it was over 100 µM; in experiment [16] it was 64.3 µM; in experiment [17], 0.054 µM.

As to `Cn1c(=O)nc2n(CCO)ccnc-2c1=O`, the TGI in experiment [1], in experiment [2], in [3], in experiment [4], in experiment [18] and in [5] was over 100 µM in each case. The TGI in experiment [6], in experiment [7], in experiment [8], in experiment [19], in experiment [9] and in experiment [10] was over 100 µM throughout. Moreover, the TGI in experiment [11], in experiment [12], in experiment [20], in experiment [13], in experiment [14] and in experiment [15] was over 100 µM throughout.

With `NC(=O)NC(CC(=O)O)C(=O)O` (configuration not stated), the TGI in experiment [1], in experiment [2], in [3], in experiment [4], in experiment [18] and in [5] was over 100 µM each time. Moreover, the TGI in experiment [6], in experiment [7], in experiment [8], in experiment [19], in experiment [9] and in [10] was over 100 µM throughout. Moreover, the TGI in [11], in [12], in [20], in [13] and in experiment [15] was over 100 µM throughout.

Turning to `Cc1[nH]c2ncn3ncnc3c2c1Cc1ccccc1`, the TGI in [1], in experiment [2], in experiment [3], in experiment [4], in experiment [18] and in [5] was over 100 µM in each case. Also, the TGI in [6], in [7], in [8], in [9], in [10] and in experiment [11] was over 100 µM in each case. Further, the TGI in experiment [12], in experiment [20], in experiment [14], in [15], in experiment [16] and in experiment [17] was over 100 µM in each case.

Regarding `OC(c1ccc(F)cc1)C(F)(F)c1nc(-c2ccccc2)no1` (configuration not stated), the TGI in experiment [1] was 33.4 µM; in experiment [2], 74.7 µM; in experiment [4] it was over 100 µM; in [18], 35.4 µM; in experiment [5], 62.7 µM; in experiment [6], 63.4 µM. The TGI in experiment [8] was 63 µM; in [9] it was 63.9 µM; in [10], 91.9 µM; in experiment [11], 39.1 µM; in [12], 42.8 µM; in experiment [20], over 100 µM. In addition, the TGI is over 100 µM in [13], 58.9 µM in [15] and 48.7 µM in experiment [17].

Consider `COc1ccc(C(=O)/C=C2\c3ccccc3C(=O)N2C)cc1`, for which the TGI in experiment [1], in [2], in experiment [3], in [4], in experiment [18] and in experiment [5] was over 100 µM in each case. In addition, the TGI in [6] was over 100 µM; in [7], over 100 µM; in experiment [8] it was over 100 µM; in experiment [19] it was over 100 µM; in [9] it was over 100 µM; in experiment [10], 75.7 µM. For the same compound, the TGI in experiment [11], in experiment [12], in experiment [20], in experiment [13], in [14] and in experiment [15] was over 100 µM each time. In [16], this compound displayed a TGI of over 100 µM.

As for `CN(C)C(=S)N/N=C\C(=N/NC(=S)N(C)C)c1ccccc1`, the TGI is over 100 µM in experiment [1]; over 100 µM in experiment [2]; over 100 µM in [3]; over 25.1 µM in experiment [4]; over 100 µM in experiment [18]; over 100 µM in experiment [5]. Moreover, the TGI in experiment [6] is over 100 µM; in experiment [7] it was over 53.7 µM; in experiment [8] it was over 100 µM; in experiment [19], over 100 µM; in [9], over 29.9 µM; in experiment [10] it was 92.1 µM. Moreover, the TGI in experiment [11] was over 100 µM; in [12], over 100 µM; in experiment [20], 9.86 µM; in [13] it was over 100 µM; in experiment [14] it was over 100 µM; in experiment [15] it was over 100 µM. Further, the TGI in [16] is over 100 µM.

Take `CC1(C)N(OC2CCCCO2)C(c2ccccc2)C(c2ccccc2)=[N+]1[O-]` (configuration not stated): the TGI in experiment [1], in experiment [2], in experiment [3], in experiment [4], in experiment [18] and in experiment [5] was over 100 µM each time. The TGI in experiment [6], in experiment [7], in experiment [8], in experiment [9], in experiment [10] and in experiment [11] was over 100 µM in each case. The TGI in experiment [12], in experiment [13], in experiment [14], in [15], in experiment [16] and in [17] was over 100 µM each time.

`CC1=Nc2nc3ccccc3n2C(C)(C)C1`: the TGI in [1], in experiment [2], in experiment [3], in experiment [4], in experiment [18] and in [5] was over 100 µM throughout. Also, the TGI in [6], in experiment [7], in [8], in [19], in [9] and in [10] was over 100 µM each time. In addition, the TGI in experiment [11], in [12], in [20], in [13], in experiment [14] and in [15] was over 100 µM throughout. This compound gave a TGI in experiment [16] of over 100 µM.

Take `Nc1ncnc2c1ncn2[C@@H]1C[C@H]1CO`: the TGI in experiment [1], in experiment [2], in experiment [3], in experiment [4], in experiment [18] and in experiment [5] was over 100 µM in each case. Moreover, the TGI in [6], in experiment [8], in experiment [19], in experiment [9], in experiment [11] and in experiment [12] was over 100 µM throughout. The TGI in experiment [20], in [13], in experiment [15] and in experiment [17] was over 100 µM throughout.

Take `CCCCOP(=O)(OCCCC)/C(C#N)=C/c1ccc(C)o1`: the TGI in [1] was over 100 µM; in experiment [2], over 100 µM; in experiment [3], over 100 µM; in [4], 64.4 µM; in experiment [5] it was 95.5 µM; in experiment [6] it was 51.4 µM. Further, the TGI in experiment [7] was over 100 µM; in experiment [8] it was over 100 µM; in experiment [19] it was over 100 µM; in experiment [9] it was over 100 µM; in experiment [10] it was 79.6 µM; in experiment [11] it was 77.3 µM. Also, the TGI in [12], in experiment [20], in [13], in [14], in experiment [15] and in [16] was over 100 µM each time.

For `COC(=O)C1=C(C(=O)OC)SC(=C2c3ccsc3-c3sccc32)S1`, the TGI in [1], in [2], in experiment [3], in [4], in [18] and in experiment [5] was over 100 µM throughout. Also, the TGI in experiment [6] is over 100 µM; in experiment [7], 35.6 µM; in [8], over 100 µM; in [19], over 100 µM; in experiment [9], 52 µM; in experiment [12] it was over 100 µM. Also, the TGI was over 100 µM in [13]; over 100 µM in experiment [14]; over 100 µM in experiment [15]; 49.3 µM in experiment [16]; 58.7 µM in experiment [17].

For `CCOC(=O)N1CC2(C(=O)OC)C=CC1C(C(=O)OC)C2` (configuration not stated), the TGI in experiment [2], in experiment [3], in experiment [4], in experiment [18], in [5] and in experiment [6] was over 100 µM each time. For the same compound, the TGI in experiment [7], in experiment [8], in experiment [19], in [9], in experiment [11] and in experiment [12] was over 100 µM throughout. Also, the TGI in [20], in experiment [13], in experiment [14], in [15], in experiment [16] and in experiment [17] was over 100 µM throughout.

Turning to `Cn1c(=O)cc(NNc2ccc(Br)cc2)[nH]c1=O`, the TGI is 12.2 µM in [1]; 19.3 µM in experiment [2]; over 100 µM in experiment [4]; 30 µM in [18]; 28.6 µM in experiment [5]; 22.1 µM in experiment [6]. Further, the TGI came out at 19.6 µM in experiment [8]; 46 µM in experiment [19]; 9.34 µM in [9]; 27.7 µM in [10]; 27.7 µM in experiment [12]; 4.13 µM in [13]. In addition, the TGI in [14] was 13.7 µM; in experiment [15], 15.6 µM; in experiment [17], 7.14 µM.

Take `CC(=O)c1c2c(cc3c1CC1(Cc4cc5c(cc4C1=O)CCC5)C3)CCC2` (configuration not stated): the TGI in [1], in experiment [2], in experiment [3], in experiment [4], in experiment [18] and in [5] was over 100 µM each time. Besides, the TGI in experiment [6] is over 100 µM; in [7], over 100 µM; in experiment [8] it was over 100 µM; in experiment [19], over 92.9 µM; in experiment [9], over 100 µM; in experiment [11] it was over 100 µM. Further, the TGI in experiment [12], in [20], in experiment [13], in experiment [14], in experiment [15] and in experiment [16] was over 100 µM throughout. Moreover, the TGI in experiment [17] is over 59.4 µM.

`Oc1ccc(-c2c3ccccc3c(-c3ccc(OCCBr)cc3)c3ccccc23)cc1`: the TGI in experiment [1] was 43.2 µM; in [2] it was over 100 µM; in experiment [3] it was over 100 µM; in experiment [4] it was 75.6 µM; in experiment [18], over 100 µM; in experiment [5] it was 59.8 µM. Further, the TGI in experiment [6] was 73.2 µM; in experiment [7], 60.9 µM; in experiment [8], 77.4 µM; in experiment [19] it was 63.5 µM; in experiment [9], 82.2 µM; in experiment [11], 63.5 µM. Further, the TGI is 44.6 µM in experiment [12]; 74 µM in [20]; 38.9 µM in [13]; 96.9 µM in [14]; over 100 µM in [15]; over 100 µM in experiment [16]. The same compound registered a TGI in experiment [17] of 70.1 µM.
